Tests used:
Assay in all cases: relative viability (nuclei count vs DMSO), 5 days (fraction); higher = more cells survive
BMX-IN-1 + Crizotinib = compound: C=CC(=O)Nc1cc(-n2c(=O)ccc3cnc4ccc(-c5ccc(NS(C)(=O)=O)cc5)cc4c32)ccc1C [BMX-IN-1] + C[C@@H](Oc1cc(-c2cnn(C3CCNCC3)c2)cnc1N)c1c(Cl)ccc(F)c1Cl [Crizotinib] (partner 1 µM)
How it was run: (§1)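 Nuclei were stained with Hoechst during a one-step fixation (final 0.05% Triton X-100, 1% formaldehyde, 1 ug/ml Hoechst) carried out 5 days after dosing, then counted on 4× images. The cells, lung cancer lines in 1536-well plates, had been dosed by pin tool the day after seeding with one drug alone or a fixed anchor-drug dose plus five library-drug doses (not always all listed) in √10 steps. Relative viability is the nuclei count in treated wells divided by that in vehicle wells, and each value is the median of duplicate plates.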

BMX-IN-1 + Alpelisib = compound: C=CC(=O)Nc1cc(-n2c(=O)ccc3cnc4ccc(-c5ccc(NS(C)(=O)=O)cc5)cc4c32)ccc1C [BMX-IN-1] + Cc1nc(NC(=O)N2CCC[C@H]2C(N)=O)sc1-c1ccnc(C(C)(C)C(F)(F)F)c1 [Alpelisib] (partner 2 µM)
How it was run: as §1

BMX-IN-1 + Decitabine = compound: C=CC(=O)Nc1cc(-n2c(=O)ccc3cnc4ccc(-c5ccc(NS(C)(=O)=O)cc5)cc4c32)ccc1C [BMX-IN-1] + Nc1ncn([C@H]2C[C@H](O)[C@@H](CO)O2)c(=O)n1 [Decitabine] (partner 2 µM)
How it was run: as §1

PAC-1 + Palbociclib = compound: C=CCc1cccc(/C=N/NC(=O)CN2CCN(Cc3ccccc3)CC2)c1O [PAC-1] + CC(=O)c1c(C)c2cnc(Nc3ccc(N4CCNCC4)cn3)nc2n(C2CCCC2)c1=O [Palbociclib] (partner 0.5 µM)
How it was run: as §1

PAC-1 + Vorinostat = compound: C=CCc1cccc(/C=N/NC(=O)CN2CCN(Cc3ccccc3)CC2)c1O [PAC-1] + O=C(CCCCCCC(=O)Nc1ccccc1)NO [Vorinostat] (partner 1 µM)
How it was run: as §1

Row | Cell Line | relative viability (BMX-IN-1 + Crizotinib; first compound 0.02 µM) | relative viability (BMX-IN-1 + Crizotinib; first compound 0.2 µM) | relative viability (BMX-IN-1 + Crizotinib; first compound 0.6325 µM) | relative viability (BMX-IN-1 + Crizotinib; first compound 2 µM) | relative viability (BMX-IN-1 + Alpelisib; first compound 0.02 µM) | relative viability (BMX-IN-1 + Alpelisib; first compound 0.2 µM) | relative viability (BMX-IN-1 + Alpelisib; first compound 0.6325 µM) | relative viability (BMX-IN-1 + Alpelisib; first compound 2 µM) | relative viability (BMX-IN-1 + Decitabine; first compound 0.02 µM) | relative viability (BMX-IN-1 + Decitabine; first compound 0.2 µM) | relative viability (BMX-IN-1 + Decitabine; first compound 0.6325 µM) | relative viability (BMX-IN-1 + Decitabine; first compound 2 µM) | relative viability (PAC-1 + Palbociclib; first compound 0.02 µM) | relative viability (PAC-1 + Palbociclib; first compound 0.06325 µM) | relative viability (PAC-1 + Palbociclib; first compound 0.2 µM) | relative viability (PAC-1 + Palbociclib; first compound 2 µM) | relative viability (PAC-1 + Vorinostat; first compound 0.02 µM) | relative viability (PAC-1 + Vorinostat; first compound 0.06325 µM) | relative viability (PAC-1 + Vorinostat; first compound 0.2 µM) | relative viability (PAC-1 + Vorinostat; first compound 2 µM)
1 | Calu-6 | 0.925 | 0.886 | 0.927 | 0.988 | 0.974 | 1.13 | 1.15 | 0.919 | – | – | – | – | – | – | – | – | – | – | – | –
2 | ChaGo-K-1 | 1.39 | 1.07 | 1.18 | 1.17 | – | – | – | – | 0.512 | 0.549 | 0.551 | 0.519 | 0.914 | 0.933 | 0.956 | 0.954 | 0.754 | 0.773 | 0.65 | 0.829
3 | EBC-1 | 0.195 | 0.202 | 0.162 | 0.197 | 0.701 | 0.698 | 1.01 | 0.812 | – | – | – | – | – | – | – | – | – | – | – | –
4 | EKVX | 1.18 | 1.29 | 0.882 | 1.01 | 0.942 | 0.965 | 0.951 | 0.828 | 0.333 | 0.281 | 0.617 | 0.381 | 0.389 | 0.385 | 0.308 | 0.388 | 0.768 | 0.776 | 0.793 | 0.69
5 | EMC-BAC-2 | 0.858 | 0.877 | 0.797 | 0.718 | 0.891 | 0.873 | 0.783 | 0.625 | 0.95 | 0.993 | 1.1 | 1.03 | 0.55 | 0.524 | 0.519 | 0.519 | 0.414 | 0.531 | 0.774 | 0.478
6 | EPLC-272H | 1.04 | 0.968 | 0.96 | 0.96 | 0.973 | 1.15 | 1.08 | 0.94 | 0.29 | 0.397 | 0.407 | 0.355 | 0.279 | 0.28 | 0.293 | 0.268 | 0.457 | 0.3 | 0.309 | 0.225
7 | H3255 | 0.969 | 1.11 | 0.968 | 0.924 | 0.798 | 0.657 | 0.815 | 0.712 | 0.784 | 0.631 | 0.812 | 0.694 | 0.359 | 0.298 | 0.299 | 0.291 | 0.923 | 0.762 | 0.87 | 0.593
8 | HARA | 1.39 | 1.24 | 1.16 | 1.09 | 1.04 | 0.883 | 0.787 | 0.846 | 0.752 | 0.575 | 0.664 | 0.704 | 0.228 | 0.225 | 0.247 | 0.329 | – | 0.56 | 0.529 | 0.526
9 | HCC-15 | 0.991 | 0.945 | 0.953 | 0.762 | 1.08 | 1.02 | 0.924 | 0.882 | 0.721 | 0.651 | 0.652 | 0.713 | 0.743 | 0.747 | 0.628 | 0.689 | 0.782 | 0.861 | 0.769 | 0.825

— the supplement of paper PMC10307832
